Laboratory results: patent publication US20070021348A1, “Novel treatment” (SmithKline Beecham Corp., & SmithKline Beecham, p.l.c., priority 1999, published 2007)
Each block holds one molecule with its values, some of them ahead of it. Starred links: 1 amine or outer side, 2 acyl side, 3 side chain; linkers in the order of their positions; H or OH if unused. Non-standard residues stand in square brackets, D forms with d. Residues, ends and D or L forms follow the SMILES beside them. *: point of attachment. Hexanoyl(5S-NH,4S-OH,6-Ph) = O=C(CC[C@H](O)[C@H](Cc1ccccc1)N[*:1])[*:2]; X2 = C[C@H](C[C@H](O)[C@H](Cc1ccccc1)N[*:1])C(=O)[*:2]; X3 = Nc1ccc2c(c1)Oc1ccccc1C21OC(=O)c2cc(C(=O)*)ccc21; X1 = CC(C)C[C@H](N[*:1])[C@@H](O)CCC(=O)[*:2]

Legend:
Asp2-Fc enzyme [1] = target: T1, Asp2-Fc enzyme (Homo sapiens, UniProt P56817); test: Asp 2 fluorescence polarisation assay, Kd of labelled ligand; conditions: ligand 1-100 nM, enzyme from 100 nM down in twofold dilutions, pH 4.0, 15 min equilibration, anisotropy; read-out: Kd for the tight binding interaction
T1 construct: A cDNA fragment encoding Asp 2, amino acids 1 to 460; made in house; host or cells: CHO E1A (derived from DG-44), secreted, purified on Protein A
Protocol: A competition assay has also been designed to identify compounds acting at the Asp2 active site. The hydroxyethylene inhibitor, (I), has been modified by addition of 5-, 6-rhodamine green to the free N-terminal amine of the compound to create labelled ligand (III). [drawing 4] The resulting compound was tested experimentally as follows to determine the Kd with Asp2-Fc enzyme, prepared as above.
A three dimensional analysis varying enzyme and compound (III) was performed. Ligand concentration range was 1, 3, 10, 30 and 100 nM. Enzyme concentration range was from 100 nM down in serial twofold dilutions (11 dilutions+no enzyme control). Ligand of appropriate concentration was prepared in 5% DMSO. The enzyme solutions were prepared in 2 times (×2) assay buffer (where ×1=50 mM sodium acetate, 20 mM sodium chloride, 5% glycerol, 0.1% CHAPS, pH 4.0). 5 ul of the enzyme solution (of varying concentration) was mixed with 5 ul of the ligand (of varying concentration) in a low volume 384 microtitre plate. The samples were allowed to equilibrate for 15 min before the fluorescence polarisation was read on an LJL Acquest platereader.
The Anisotropy values were plotted and the Kd for the tight binding interaction obtained.

Asp2-Fc enzyme [2] = target: T1, Asp2-Fc enzyme; test: Fluorescence Resonance Energy Transfer (FRET) cleavage assay for Asp2; format: biochemical; conditions: 0.5 uM fluorescent Swedish variant APP beta-site peptide substrate, 25 nM enzyme, pH 3.8
Protocol: Preparation of Asp 2—Fc Fusion Protein (Asp 2(1-460)-Fc)
A cDNA fragment encoding Asp 2, amino acids 1 to 460 (EP855444 but with 130 Glu->Val), was subcloned to create a fusion protein with human immunoglobulin, residues 99-330 of IgGI, and cloned into the mammalian expression vector pCDN (Aiyar et al). The plasmid was linearized by digestion with Not 1 (15 ug DNA, 37′C, overnight), sterially precipitated and resuspended into 50 ul 1 X TE buffer (10 mM Tris, 1 mM EDTA, pH 7.5). […]
A peptide (X) based on the sequence of the Swedish variant APP beta-site sequence has been doubly labelled for use in a FRET assay. […] This would allow cleavage of the intervening peptide sequence by Asp2 to be monitored by energy transfer between the two fluorescent groups.
The fluorescent peptide substrate (0.5 uM) was incubated with Asp2-Fc enzyme, prepared as described above, in a buffer containing 50 mM sodium acetate, 20 mM sodium chloride, 5% glycerol, 0.1% CHAPS (3-[(3-Cholamidopropyl) dimethylammonio]-1-propane-sulphonate), pH 3.8). The assays were started by addition of enzyme (25 nM final concentration) and cleavage monitored on a fluorescent platereader with 485 nm excitation, 538 nm emission. […]
This assay was used to determine IC50 and Ki values for compounds of interest. […] Asp 2 Fluorescence Polarisation Assay.

Asp2-Fc enzyme [3] = target: T1, Asp2-Fc enzyme; test: Asp 2 fluorescence polarisation competition assay against labelled ligand (III); format: binding
Protocol: Enzyme (at a fixed concentration of 25 nM), ligand (III) (at a fixed concentration of 2.5 nM) and test compound (10 uM down in twofold serial dilutions) were mixed in ×1 assay buffer (50 mM 50 mM sodium acetate, 20 mM sodium chloride, 5% glycerol, 0.1% CHAPS, pH 3.8) in a final assay volume of 10 ul and allowed to equilibrate for 3 hrs. The fluorescence polarisation was then read. The experiment was performed in duplicate.

Kd (Asp2-Fc enzyme [1]): 1.22 nM
Structure (SMILES): CC(C)[C@H](NC(=O)[C@H](CCC(=O)O)NC(=O)c1ccc2c(c1)C(=O)OC21c2ccccc2Oc2cc(N)ccc21)C(=O)N[C@@H](CC(N)=O)C(=O)N[C@@H](Cc1ccccc1)[C@@H](O)CCC(=O)N[C@@H](C)C(=O)N[C@@H](CCC(=O)O)C(=O)N[C@@H](Cc1ccccc1)C(=O)O (stereo partly drawn) [(III)] (X3-EVN[Hexanoyl(5S-NH,4S-OH,6-Ph)]AEF-OH)

Ki (Asp2-Fc enzyme [2]): 7.7 nM
Structure (SMILES): CC(C)[C@H](NC(=O)[C@@H](N)CCC(=O)O)C(=O)N[C@@H](CC(N)=O)C(=O)N[C@@H](Cc1ccccc1)[C@@H](O)CCC(=O)N[C@@H](C)C(=O)N[C@@H](CCC(=O)O)C(=O)N[C@@H](Cc1ccccc1)C(=O)O [(I)] (H-EVN[Hexanoyl(5S-NH,4S-OH,6-Ph)]AEF-OH)

Ki (Asp2-Fc enzyme [2]): 7.3 nM
Structure (SMILES): CC(C)[C@H](NC(=O)[C@@H](N)CCC(=O)O)C(=O)N[C@@H](CC(N)=O)C(=O)N[C@@H](Cc1ccccc1)[C@@H](O)C[C@@H](C)C(=O)N[C@@H](C)C(=O)N[C@@H](CCC(=O)O)C(=O)N[C@@H](Cc1ccccc1)C(=O)O [(II)] (H-EVN[X2]AEF-OH)

Ki (Asp2-Fc enzyme [3]; 25 nM enzyme, 2.5 nM ligand (III), pH 3.8, 3 hrs equilibration, duplicate): 67.5 nM
displacement of the fluorescent ligand (III) (Asp2-Fc enzyme [3]; at the highest concentrations of test compound (10 uM down in twofold serial dilutions)): Complete displacement
Structure (SMILES): CC(C)C[C@H](NC(=O)[C@H](C)NC(=O)[C@@H](NC(=O)[C@@H](N)CCC(=O)O)C(C)C)[C@@H](O)CCC(=O)N[C@@H](C)C(=O)N[C@@H](CCC(=O)O)C(=O)N[C@@H](Cc1ccccc1)C(=O)O [Compound (IV)] (H-EVA[X1]AEF-OH)
